Where “and” joins values, the source holds several entries; their conditions need not be identical. Equal values may be shown once. Read-outs that look alike come from different tables or passages of the source.
Tests used:
[1] = test system: HeLa Lysate; assay: Cap competition assay in kinetic cell free in vitro translation (free cap analogs); type: biochemical; settings: free cap analog 0-100 uM against Cap1-tipped eGFP modRNA, fluorescence plateau
Experimental: The in vitro translation assay was conducted with the HeLa 1-step coupled IVT kit (ThermoFisher Scientific, Waltham, Mass.) according to the manufacturer's instructions to assess performance of new cap analogs as free compounds or as an integral part of capped mRNA. Cap analogs with affinity to eIF4E protein may reduce protein synthesis rate in cell-free translation. Further, RNAs containing such cap analogs (“Cap-modRNA”) show different potency of protein synthesis in cell-free translation.
For competition assays, the total volume of the cell-free translation reaction was increased to 27.8 uL by addition of either water or diluted free CAP analogs in water. The stock concentration of the free CAP analogs was 1 mM. With two-fold dilutions in water, the concentration was reduced sequentially. […] The CAP analogs used in this study were either commercial products serving as reference material (TriLink, San Diego, Calif.) or compounds disclosed herein. It is hypothesized that the small molecule cap analogs interfere with the assembly of the “closed loop” in a Kd-dependent fashion.
After the fluorescent signal in cell-free translation reaction reached a stable plateau, absolute values thereof were transferred to a statistical analysis program (GraphPad Software, La Jolla, Calif.) and curve fitting or IC50 calculations were derived with settings according to the instructions of the manufacturer.
The results from the cap competition assays are illustrated in FIGS. 1A-1C and 2A-2D. In this study, each of the modRNAs used comprises 1-methyl-pseudouridine, which replaces each uridine in the RNA sequence and 5-methyl cytidine, which replaces each cytidine in the RNA sequence. Further, Table 11 includes the IC50 values of certain compounds of the disclosure.

[2] = molecular target: T1, eIF4E (Homo sapiens, UniProt P06730)
T1 sequence (P06730 32-217): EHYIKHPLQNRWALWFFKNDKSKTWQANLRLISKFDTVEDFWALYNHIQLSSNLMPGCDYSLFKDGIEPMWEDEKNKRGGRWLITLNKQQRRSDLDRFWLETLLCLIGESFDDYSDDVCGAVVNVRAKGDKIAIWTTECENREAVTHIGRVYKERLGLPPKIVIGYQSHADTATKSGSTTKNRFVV

[3] = molecular target: T1, eIF4E; assay: biochemical
[4] = molecular target: T1, eIF4E; assay: Binding affinities to eIF4E using surface plasmon resonance (SPR); settings: for koff: read-out: koff (s^−1)

IC50 [1] [µM]	koff [2] [s⁻¹]	Kd [3]	Structure (SMILES)	τ [4] [s]	koff [4] [s⁻¹]
179	1	11 µM	C[n+]1cn([C@@H]2O[C@H](COP(=O)(O)OP(=O)(O)OP(=O)(O)OC[C@H]3O[C@@H](n4cnc5c(=O)[nH]c(N)nc54)[C@H](O)[C@@H]3O)[C@@H](O)[C@@]2(C)O)c2nc(N)[nH]c(=O)c21 [Compound 007-1]		
92			C[n+]1cn([C@@H]2O[C@H](COP(=O)(O)OP(=O)([O-])OP(=O)(O)OC[C@H]3O[C@@H](n4cnc5c(=O)[nH]c(N)nc54)[C@H](O)[C@@H]3O)[C@@H](O)[C@@H]2O)c2nc(N)[nH]c(=O)c21 [Compound 005-11]		
35			Cn1c[n+]([C@@H]2O[C@H](COP(=O)(O)OP(=O)([O-])OP(=O)(O)OC[C@H]3O[C@@H](n4cnc5c(=O)[nH]c(N)nc54)[C@H](O)[C@@H]3O)[C@@H](O)[C@H]2O)c2nc(N)[nH]c(=O)c21 [Cap0, m7GpppG, reference compound]		
25	0.08		Nc1nc2c(ncn2[C@@H]2O[C@H](COP(=O)(O)OP(=O)(O)OP(=O)(O)OC[C@H]3O[C@@H](c4cn(CCOc5ccc(Cl)cc5)c5c(=O)[nH]c(N)nc45)[C@H](O)[C@@H]3O)[C@@H](O)[C@H]2O)c(=O)[nH]1 [Compound 005-1]		
		300 µM	C[n+]1cn([C@@H]2O[C@H](COP(=O)(O)OCCN(CCOP(=O)(O)OC[C@H]3O[C@@H](n4c[n+](C)c5c(=O)[nH]c(N)nc54)[C@H](O)[C@@H]3O)C(=O)OC(C)(C)C)[C@@H](O)[C@H]2O)c2nc(N)[nH]c(=O)c21 [Compound 008-25]		
	0.94	4.2 µM	COCCO[C@@H]1[C@H](O)[C@@H](COP(=O)(O)OP(=O)([O-])OP(=O)(O)OC[C@H]2O[C@@H](n3cnc4c(=O)[nH]c(N)nc43)[C@H](OC)[C@@H]2O)O[C@H]1n1c[n+](C)c2c(=O)[nH]c(N)nc21 [Compound 005-19]		
	0.057	0.1 µM	C[C@@]1(O)[C@H](O)[C@@H](COP(=O)(O)OP(=O)(O)OP(=O)(O)OC[C@H]2O[C@@H](n3cnc4c(=O)[nH]c(N)nc43)[C@H](O)[C@@H]2O)O[C@H]1n1c[n+](CCOc2ccc(Cl)cc2)c2c(=O)[nH]c(N)nc21 [Compound 007-37]		
	3.8	75 µM	CO[C@@H]1[C@H](O)[C@@H](COP(=O)([O-])OP(=O)([O-])OC[C@H]2O[C@@H](n3c[n+](C)c4c(=O)[nH]c(N)nc43)[C@H](O)[C@@H]2O)O[C@H]1n1c[n+](C)c2c(=O)[nH]c(N)nc21 [Compound 005-8]		
		1.7 µM	BP(=O)(OP(=O)([O-])OC[C@H]1O[C@@H](n2cnc3c(=O)[nH]c(N)nc32)[C@H](O)[C@@H]1O)OP(=O)(O)OCC1CN(C)CC(n2c[n+](C)c3c(=O)[nH]c(N)nc32)O1 (stereo partly drawn) [Compound 006-30]		
	0.26	2.7 µM	CO[C@@H]1[C@H](O)[C@@H](COP(=O)([O-])OP(=O)([O-])OP(=O)(O)OC[C@H]2O[C@@H](n3c[n+](C)c4c(=O)[nH]c(N)nc43)[C@H](O)[C@@H]2O)O[C@H]1n1c[n+](C)c2c(=O)[nH]c(N)nc21 [Compound 005-7]		
		12 µM	C[n+]1cn(C(CO)OC(CO)COP(=O)(O)OP(=O)(O)OP(=O)(O)OC[C@H]2O[C@@H](n3cnc4c(=O)[nH]c(N)nc43)[C@H](O)[C@@H]2O)c2nc(N)[nH]c(=O)c21 (stereo partly drawn) [Compound 006-36]		
	0.34	1.7 µM	CO[C@@H]1[C@H](O)[C@@H](COP(=O)(O)OP(=O)([O-])OP(=O)(O)OCC2CN(Cc3ccccc3)CC(n3c[n+](C)c4c(=O)[nH]c(N)nc43)O2)O[C@H]1n1cnc2c(=O)[nH]c(N)nc21 (stereo partly drawn) [Compound 006-40]		
	1	9.1 µM	C#CCN1C[C@@H](COP(=O)([O-])OP(=O)(O)OP(=O)(O)OC[C@H]2O[C@@H](n3cnc4c(=O)[nH]c(N)nc43)[C@H](O)[C@@H]2O)O[C@@H](n2c[n+](C)c3c(=O)[nH]c(N)nc32)C1 [Compound 006-27]		
33	0.6	8 to 9 µM and 9 µM	C[n+]1cn([C@H]2CN(CCO)C[C@@H](COP(=O)([O-])OP(=O)(O)OP(=O)(O)OC[C@H]3O[C@@H](n4cnc5c(=O)[nH]c(N)nc54)[C@H](O)[C@@H]3O)O2)c2nc(N)[nH]c(=O)c21 [Compound 006-3]		
		0.5 to 1.1 µM	BP(=O)(OP(=O)([O-])OC[C@H]1O[C@@H](n2c[n+](C)c3c(=O)[nH]c(N)nc32)[C@H](OC)[C@@H]1O)OP(=O)(O)OC[C@H]1O[C@@H](n2cnc3c(=O)[nH]c(N)nc32)[C@H](O)[C@@H]1O (stereo partly drawn) [Compound 005-3]		
2	0.04	0.2 µM	CO[C@@H]1[C@H](O)[C@@H](COP(=O)(O)OP(=O)([O-])OP(=O)(O)OC[C@H]2O[C@@H](n3cnc4c(=O)[nH]c(N)nc43)[C@H](O)[C@@H]2O)O[C@H]1n1c[n+](CCOc2ccc(Cl)cc2)c2c(=O)[nH]c(N)nc21 [Compound 005-5]		
9	0.41	1.1 µM and 1 µM	C[n+]1cn([C@@H]2O[C@H](COP(=O)(O)OP(=O)([O-])OP(=O)([O-])OP(=O)(O)OC[C@H]3O[C@@H](n4c[n+](C)c5c(=O)[nH]c(N)nc54)[C@H](O)[C@@H]3O)[C@@H](O)[C@H]2O)c2nc(N)[nH]c(=O)c21 [Compound 005-9]		
	0.41	1.1 µM	CO[C@@H]1[C@H](O)[C@@H](COP(=O)(O)OP(=O)([O-])OP(=O)([O-])OP(=O)(O)OC[C@H]2O[C@@H](n3c[n+](C)c4c(=O)[nH]c(N)nc43)[C@H](O)[C@@H]2O)O[C@H]1n1c[n+](C)c2c(=O)[nH]c(N)nc21 [Compound 005-6]		
		11 µM	CO[C@@H]1[C@H](O)[C@@H](COP(=O)(O)OP(=O)([O-])OP(=O)(O)OCC2O[C@@H](n3c[n+](C)c4c(=O)[nH]c(N)nc43)[C@](C)(O)[C@@H]2O)O[C@H]1n1cnc2c(=O)[nH]c(N)nc21 (stereo partly drawn) [Compound 007-38]		
318		218 µM	C=CCn1c(=O)n([C@@H]2O[C@H](COP(=O)(O)OP(=O)(O)OP(=O)(O)OC[C@H]3O[C@@H](n4cnc5c(=O)[nH]c(N)nc54)[C@H](O)[C@@H]3O)[C@H]3OC(C)(C)O[C@@H]32)c2nc(N)[nH]c(=O)c21 [Compound 005-13]		
48	1.7	6.4 µM and 4 µM	CO[C@@H]1[C@H](O)[C@@H](COP(=O)(O)OP(=O)([O-])OP(=O)(O)OC[C@H]2O[C@@H](n3cnc4c(=O)[nH]c(N)nc43)[C@H](O)[C@@H]2O)O[C@H]1n1c[n+](C)c2c(=O)[nH]c(N)nc21 [Compound 005-14]		
	1.5	6.7 to 8.7 µM	CO[C@@H]1[C@H](O)[C@@H](COP(=O)(O)OP(=O)([O-])OP(=O)(O)OCC2CN(C)CC(n3c[n+](C)c4c(=O)[nH]c(N)nc43)O2)O[C@H]1n1cnc2c(=O)[nH]c(N)nc21 (stereo partly drawn) [Compound 006-39]		
		3.58 µM	C[n+]1cn([C@H]2C[C@H](O)[C@@H](COP(=O)(O)OP(=O)([O-])OP(=O)(O)OC[C@H]3O[C@@H](n4cnc5c(=O)[nH]c(N)nc54)[C@H](O)[C@@H]3O)O2)c2nc(N)[nH]c(=O)c21 [Compound 005-31]		
	3.8	75 µM	C[n+]1cn([C@@H]2O[C@H](COP(=O)([O-])OP(=O)([O-])OC[C@H]3O[C@@H](n4c[n+](C)c5c(=O)[nH]c(N)nc54)[C@H](O)[C@@H]3O)[C@@H](O)[C@H]2O)c2nc(N)[nH]c(=O)c21 [Compound 005-15]		
		110 µM	C[n+]1cn([C@@H]2O[C@H](COP(=O)([O-])OCCOCCOP(=O)([O-])OC[C@H]3O[C@@H](n4c[n+](C)c5c(=O)[nH]c(N)nc54)[C@H](O)[C@@H]3O)[C@@H](O)[C@H]2O)c2nc(N)[nH]c(=O)c21 [Compound 008-2]		
21	0.9	4.3 µM and 4 µM	COCCO[C@H]1[C@H](O)[C@@H](COP(=O)(O)OP(=O)([O-])OP(=O)(O)OC[C@H]2O[C@@H](n3cnc4c(=O)[nH]c(N)nc43)[C@H](O)[C@@H]2O)O[C@H]1n1c[n+](C)c2c(=O)[nH]c(N)nc21 [Compound 005-12]		
	0.33	2.4 µM	C[n+]1cn(C2CN(Cc3ccccc3)CC(COP(=O)(O)OP(=O)([O-])OP(=O)([O-])OC[C@H]3O[C@@H](n4c[n+](C)c5c(=O)[nH]c(N)nc54)[C@H](O)[C@@H]3O)O2)c2nc(N)[nH]c(=O)c21 (stereo partly drawn) [Compound 006-31]		

Structure (SMILES)	IC50 [1] [µM]	koff [2] [s⁻¹]	Kd [3]	τ [4] [s]	koff [4] [s⁻¹]
BP(=O)(OP(=O)([O-])OC[C@H]1O[C@@H](n2c[n+](C)c3c(=O)[nH]c(N)nc32)[C@H](O)[C@@H]1O)OP(=O)(O)OC[C@H]1O[C@@H](n2cnc3c(=O)[nH]c(N)nc32)[C@H](O)[C@@H]1O (stereo partly drawn) [Compound 005-32]			0.33 µM	9.09	0.11
BP(=O)(OP(=O)([O-])OC[C@H]1O[C@@H](n2c[n+](CCOc3ccc(Cl)cc3)c3c(=O)[nH]c(N)nc32)[C@H](OC)[C@@H]1O)OP(=O)(O)OC[C@H]1O[C@@H](n2cnc3c(=O)[nH]c(N)nc32)[C@H](O)[C@@H]1O (stereo partly drawn) [Compound 005-2]			0.1 µM	83.33	0.012

Reference: patent publication US20190225644A1, “MRNA CAP ANALOGS AND METHODS OF MRNA CAPPING” (ModernaTX, Inc., priority 2015, published 2019)
